One compound from US10946027B2, “Tianeptine oxalate salts and polymorphs” (Tonix Pharma Holdings Limited, priority 2016, dated 2021) can be followed below.

Structures are written as SMILES. Like-named read-outs stand apart in the source and are kept apart here.

For the compound `CN1c2ccccc2C(NCCCCCCC(=O)O)c2ccc(Cl)cc2S1(=O)=O.O=C(O)C(=O)O` (centres unmarked) [Tianeptine mono-oxalate Form A, Tianeptine Mono-Oxalate Form A], the solid form stability result (40-60° C., high humidity (75% RH)) is recorded as “started to convert into tianeptine hemi-oxalate Form A”; the solid form stability entry (milled without water) is listed as “stable”; the solid form stability entry (stored at 25° C. and 60-75% RH) is listed as “stable”; the solid form stability entry (stored at 40-60° C. without humidity (RH≈0%)) was “stable”; the solid form stability result (water kneading) is on record as “started to convert into tianeptine hemi-oxalate Form A”.
